Measured values from patent US20250333745A1, “METHODS AND COMPOSITIONS FOR TREATMENT OF POLYCYSTIC KIDNEY DISEASE” (Regulus Therapeutics Inc., priority 2016, published 2025).
Blank lines part the entries; values can stand above or below the compound they belong to.

Key:
[1] = In vitro metabolic stability in mouse liver lysate; format: in vitro ADME; conditions: 24-hour incubation of RG4326
Protocol: Metabolic stability was evaluated by incubating each anti-miR-17 compound in a mouse liver lysate. After 24 hours, the percentage of intact compound remaining is calculated. Compounds that are not stable following a 24-hour incubation are potentially not stable in vivo.
(§1) Due to their reduced capacity for serum protein binding, which is a property that drives oligonucleotide distribution in the body, short oligonucleotides are not necessarily expected to have pharmacokinetic properties that make them suitable for use as drugs. RG4326 was incubated in mouse, monkey or human liver homogenate. The identity and concentration of RG4326 and metabolites was determined after a 24-hour incubation. RG4326 and metabolites were extracted using liquid-liquid extraction (LLE) and/or solid-phase extraction (SPE), which were then analyzed for identity and concentration using ion-pairing-reversed-phase high performance liquid chromatography coupled with time-of-flight mass spectrometry (IP—RP-HPLC-TOF).

[2] = In vitro metabolic stability in monkey liver lysate; format: in vitro ADME; conditions: 24-hour incubation of RG4326
Protocol: as §1

[3] = In vitro metabolic stability in human liver lysate; format: in vitro ADME; conditions: 24-hour incubation of RG4326
Protocol: as §1

Pcy mice = experiment: Efficacy in the Pcy model of PKD; format: in vivo, mouse
Text: Two experimental models of PKD were used to evaluate efficacy. Pkd2-KO mice spontaneously develop polycystic kidney disease, and were used as a model of ADPKD. See Patel et al., PNAS, 2013; 110 (26): 10765-10770. Pcy mice bearing a mutation in Nphp3 spontaneously develop polycystic kidney disease, with a slower progression of disease than that observed in the Pkd2-KO mice. The Pcy model is used as a model of nephronophthisis. See Happe and Peters, Nat. Rev. Nephrol., 2014; 10:587-601.
Cyst index is a histological measurement of cystic area relative to total kidney area. For this analysis, one kidney was perfused with cold PBS and 4% (wt/vol) paraformaldehyde and then harvested. Kidneys were fixed with 4% paraformaldehyde for 2 hours and then, embedded in paraffin for sectioning. Sagittal sections of kidneys were stained with hematoxylin and eosin (H&E). All image processing steps were automated and took place in freely available and open source software: An R1 script which used functions from the EBImage Bioconductor package2 and the ImageMagick3 suite of image processing tools. Kidney H&E images in Aperio SVS format were converted to TIFF images, and the first frame was retained for image analysis. First, the total kidney section area was calculated using image segmentation. Image segmentation was similarly used to find all internal structures including kidney cyst. A filter was applied to remove all objects less than a mean radius of three pixels. The cystic index is the image area associated with cysts divided by the total kidney areas. Cystic index was separately calculated for longitudinal and transverse kidney sections for each individual animal. Combined cystic index of individual animals were compared for each treatment groups.
RG4326 was tested in the Pcy mouse model. Wild-type mice were used as control group. From four weeks of age, Pcy mice were treated once per week via subcutaneous injection with RG4326 at a dose of 25 mg/kg, tool anti-miR-17 at a dose of 25 mg/kg, control oligonucleotide RG5124 at a dose of 25 mg/kg, or PBS. Each treatment group contained 15 male mice. Three treatments were administered on […] days of age, and weekly thereafter at 6, 7, 8, 9, 10, 11, 12, 13, and 14 weeks of age. Also tested was tolvaptan, a vasopressin V2-receptor antagonist (VRA) that is prescribed to some patients with polycystic kidney disease. Mice were sacrificed at 15 weeks of age. Body weight was recorded. One kidney was extracted and weighed and the other processed for histological analysis to calculate cyst index as described for the study in the Pkhd1/cre; Pkd2^F/F. Blood urea nitrogen (BUN) level and serum creatinine level were measured. Statistical significance was calculated by one-way ANOVA with Dunnett's multiple correction.

miR-17 [4] = experiment: microRNA polysome shift assay (miPSA), kidney target engagement; format: in vivo, mouse; design: miPSA Score Wild Type Mice / miPSA Score PKD Mice / miPSA displacement score (mean): scale not given here; conditions: kidney, seven days; for miPSA Score PKD Mice: JCK mice, single dose 30 mg/kg; for miPSA Score Wild Type Mice: single dose 3 mg/kg
Protocol: (§2) In vivo potency was evaluated using the microRNA polysome shift assay (miPSA). This assay was used to determine the extent to which compounds directly engage the miR-17 target in the kidney in normal and PKD mice. The miPSA relies on the principle that active miRNAs bind to their mRNA targets in translationally active high molecular weight (HMW) polysomes, whereas the inhibited miRNAs reside in the low MW (LMW) polysomes. Treatment with anti-miR results in a shift of the microRNA from HMW polysomes to LMW polysomes. Thus, the miPSA provides a direct measurement of microRNA target engagement by a complementary anti-miR (Androsavich et al., Nucleic Acids Research, 2015, 44: e13).
(§3) The miPSA was used to assess the potency of each compound, measured by the displacement score, in wild type and JCK mice. Tissue accumulation of anti-miR-17 compound was measured by extraction of compound using liquid-liquid extraction (LLE) and/or solid-phase extraction (SPE), followed by analysis of the identity and concentration of compound using ion-pairing-reversed-phase high performance liquid chromatography coupled with time-of-flight mass spectrometry (IP—RP-HPLC-TOF).
(§4) Wild type mice were administered a single dose of 3 mg/kg for the miPSA analysis, and a single dose of 30 mg/kg for the tissue accumulation analysis. JCK mice were administered a single dose of 30 mg/kg for both the miPSA and tissue accumulation analyses. Kidney tissue was collected seven days following the administration of anti-miR-17 compound. […] A higher kidney-to-liver ratio is generally preferred for a disease where the primary site of action is the kidney.
as §2, with “The” for “In vivo potency was evaluated using the”, “(miPSA),” for “(miPSA). This assay”, “identify” for “determine the extent to which”, “compounds that” for “compounds”, “engage” for “engage the”, “miR-17” for “miR-17 target”
For this experiment, the PKD model selected was the JCK model, a mouse model of slowly progressing renal cystic disease associated with the same gene that causes human nephronophthisis type 9. Renal cysts in this mouse develop in multiple regions of the nephron.
C57BL6 mice were treated with a single, subcutaneous dose of 0.3, 3, and 30 mg/kg of RG4326 or tool anti-miR-17 (described in Example 1). JCK mice were treated with a single, subcutaneous dose of 3, 30, and 100 mg/kg of RG4326 or tool anti-miR-17. PBS treatment was used as an additional control. At seven days post-treatment, mice were sacrificed, and kidney tissue was isolated for the miPSA. […] The displacement scores following treatment with RG4326 were greater than the displacement scores following treatment with the tool anti-miR-17 compound. The data for wild-type mice and JCK mice are also shown in FIG. 3A and FIG. 3B, respectively.
Pharmacokinetic behavior was assessed by administering a single subcutaneous 30 mg/kg dose of RG4326 or tool anti-miR-17 compound to wild-type mice. At one hour, four hours, eight hours, one day, seven days, 14 days, 28 days and 56 days following the single injection, mice were sacrificed and the mean concentration of anti-miR compound in kidney and liver tissue was measured (ug/g) as described above. The area-under-curve (AUC) was calculated for kidney and liver tissue using the formula ug*h/g, where ug is the amount of oligonucleotide in the tissue, h is the timepoint of tissue collection in hours, and g is the weight of the tissue. The ratio of kidney AUC to liver AUC was determined. Kidney tissue was also processed to the miPSA, to determine target engagement for each compound in this study. […]

[5] = Tissue accumulation in kidney and liver (kidney-to-liver ratio); format: in vivo, mouse; conditions: single dose 30 mg/kg, seven days; for Kidney-to-Liver Ratio PKD Mice: JCK mice
Protocol: Pharmacokinetic properties and tissue distribution of select compounds were assessed in wild type C57BL6 mice and JCK mice (an experimental model of PKD). Compound was administered to wild type mouse at a dose of 0.3, 3, or 30 mg/kg, or to JCK mice at a dose of 3, 30, or 100 mg/kg. After seven days, mice were sacrificed. Kidney and liver tissues were collected. Concentration of anti-miR-17 compound was measured in liver and kidney. Compounds that accumulate to a greater level in kidney, relative to liver (i.e., have a higher kidney-to-liver ratio) were preferred.
as §3, §4

miR-17 [6] = experiment: miR-17 luciferase reporter assay in HeLa cells; format: cell-based; conditions: mean
Protocol: In vitro potency was evaluated using a luciferase reporter assay. A luciferase reporter plasmid for miR-17, with […] in the 3′-UTR of the luciferase gene. Compounds of longer lengths were selected if their maximum inhibition was greater than that of the tool anti-miR-17 compound. As shorter compounds, such as 9-mers, are typically not maximally active in the same assay conditions used for longer compounds, shorter compounds were selected based on maximum inhibition relative to appropriate control compounds. In this way, compounds that are diverse in both length and chemical composition were included in further testing.
One assay employed was the luciferase assay. […] Accordingly, the luciferase assay transfection conditions were optimized for short anti-miR-17 compounds, so that the inhibitory activity of the compounds could be measured.
The luciferase reporter plasmid for miR-17 contained a fully complementary miR-17 binding site in the 3′-UTR of the luciferase gene. HeLa cells were transfected with the microRNA mimic and its cognate luciferase reporter, followed by transfection with anti-miR-17 at doses of […], 3, 10, 30, 100, and 300 nM. At the end of the 24-hour transfection period, luciferase activity was measured. As shown in Table 2-1, RG4047, while not as potent as RG4326, inhibited miR-17 activity in a dose dependent manner. SD indicates standard deviation.
Additional in vitro assays were conducted to further explore the potency of RG4326. A luciferase reporter assay was used to test the ability of RG4326 to inhibit the miR-17 family members miR-17, miR-20a, miR-93, and miR-106b. A luciferase reporter plasmid for each of miR-20a, miR-93, and miR-106b was constructed, with a fully complementary microRNA binding site in the 3′-UTR of the luciferase gene. HeLa cells were transfected with the microRNA mimic and its cognate luciferase reporter, followed by transfection with anti-miR-17 at a dose of 100 nm. […] As RG4326 is 100% complementary to the other miR-17 family members not tested, miR-20b and […], it is expected to inhibit these microRNAs as well.

[7] = Safety evaluation of RG4047 (pro-inflammatory signal in kidney and liver)
Protocol: In in vitro assays, the potential for toxicity was assessed using a biochemical fluorescent binding assay (FBA) and a liver or kidney slice assay. The FBA is performed by incubating a fluorescent dye with each compound, and immediately measuring fluorescence. Highly fluorescent compounds have the potential to produce toxicity in vivo. The liver or kidney slice assay is performed by incubating a slice of tissue from a core liver sample isolated from rat. Following a 24-hour incubation, RNA is extracted from the tissue slice, and the expression levels of 18 pro-inflammatory genes are measured. An induction in pro-inflammatory gene expression indicates a potential for pro-inflammatory effects in vivo.
Additional in vivo toxicology assessments were performed by administering to normal mice (Sv129 mice) a single subcutaneous injection of 300 mg/kg of anti-miR-17 compound. After four days, mice were sacrificed, blood was collected for serum chemistry analysis, liver and spleen were weighed, and RNA was isolated from kidney and liver tissues. The expression level of a pro-inflammatory gene, interferon-induced protein with tetratricopeptide repeats (IFIT), was measured.
RG4047 was evaluated for potency in vivo, safety, and distribution to kidney and liver.

[8] = 25 mg/kg s.c. for oligonucleotides, sacrificed at 15 weeks of age

Compound: 5′-ASGSCMAF-3′ [Metabolite 2]
Ex Vivo Liver Lysate (% Analyte), Mouse [1]: 0.6%
Ex Vivo Liver Lysate (% Analyte), Monkey [2]: 2.3%
Ex Vivo Liver Lysate (% Analyte), Human [3]: 0.7%

Compound: 5′-ASGSCMAFCF-3′ [Metabolite 1]
Ex Vivo Liver Lysate (% Analyte), Mouse [1]: 0.3%
Ex Vivo Liver Lysate (% Analyte), Monkey [2]: 1.8%
Ex Vivo Liver Lysate (% Analyte), Human [3]: 0.6%

Compound: Cc1ccccc1C(=O)Nc1ccc(C(=O)N2CCCC(O)c3cc(Cl)ccc32)c(C)c1 (stereo not drawn) [Tolvaptan, tolvaptan]
efficacy on KW/BW ratio, BUN or cyst index (in words) (Pcy mice): not efficacious
BUN (mean) (Pcy mice; [8]): 24.4
Cystic Index (mean) (Pcy mice; [8]): 0.26
KW/BW Ratio (mean) (Pcy mice; [8]): 20.1

Compound: ASGSCMAMCMUMUMUSGS [Compound 4325]
miPSA Score PKD Mice (miR-17 [4]): 2.00
miPSA Score Wild Type Mice (miR-17 [4]): 1.82
Kidney-to-Liver Ratio PKD Mice [5]: 5.7
Kidney-to-Liver Ratio Wild Type Mice [5]: 12.4

Further lines, with some results ahead:

Kidney-to-Liver Ratio PKD Mice [5]: 9.4
Kidney-to-Liver Ratio Wild Type Mice [5]: 24.9
Compound: ASGMCFAFCFUFUFUMGS [Compound 4327]
miPSA Score PKD Mice (miR-17 [4]): 1.53
miPSA Score Wild Type Mice (miR-17 [4]): 2.85

Kidney-to-Liver Ratio PKD Mice [5]: 3.9
Kidney-to-Liver Ratio Wild Type Mice [5]: 5.0
Compound: ASGSCMASCMUSUMUSGS [Compound 4324]
miPSA Score PKD Mice (miR-17 [4]): 2.53
miPSA Score Wild Type Mice (miR-17 [4]): 2.81

Kidney-to-Liver Ratio PKD Mice [5]: 2.1
Kidney-to-Liver Ratio Wild Type Mice [5]: 4.4
Compound: ASGSCSASCSUSUSUSGS [RG4047]
Luciferase Fold Derepression (miR-17 [6]; 0.001 nM anti-miR-17, 24-hour transfection): 1
Luciferase Fold Derepression (miR-17 [6]; 3 nM anti-miR-17, 24-hour transfection): 1.6
Luciferase Fold Derepression (miR-17 [6]; 10 nM anti-miR-17, 24-hour transfection): 2.2
Luciferase Fold Derepression (miR-17 [6]; 30 nM anti-miR-17, 24-hour transfection): 3.5
Luciferase Fold Derepression (miR-17 [6]; 100 nM anti-miR-17, 24-hour transfection): 8.2
Luciferase Fold Derepression (miR-17 [6]; 300 nM anti-miR-17, 24-hour transfection): 7.5
miPSA Score PKD Mice (miR-17 [4]): 1.80
miPSA Score Wild Type Mice (miR-17 [4]): 1.76
pro-inflammatory signal (in words) [7]: slight pro-inflammatory signal in both kidney and liver
